Test system: STIM1−/− T cells
Test: Single-cell [Ca2+]i measurement in STIM1−/− T cells expressing STIM1 fragments
Assay type: cell-based, murine
Conditions: for constitutive Ca^2+ influx: retroviral expression, Fura-2
From the text: To determine the competence of STIM 1 fragments to activate ORAI1 in mammalian cells, Myc-tagged STIM 1^CT and its truncated variants were introduced by retroviral expression into STIM1−/− T cells, and their ability to elevate resting Ca^2+ permeability was examined in cells loaded with Fura-2. As in human Jurkat T cells (Huang, G. N., et al., (2006); supra), expression of the soluble cytoplasmic portion of STIM 1 activated Ca^2+ influx into STIM1−/− murine T cells (FIG. 11). Elevated Ca^2+ permeability was evident in a marked increase in cytoplasmic [Ca^2+] on changing to medium containing 2 mM Ca^2+ after brief exposure to nominally Ca^2+-free medium. […] Retroviral vector alone conferred no constitutive influx above the level in control cells, as previously shown (Oh-hora, M., et al., (2008), supra).
Retroviral expression plasmids encoding mouse STIM 1 and its cytoplasmic fragments (residues 233-685, 233-600, 233-498, or 233-463) were constructed by inserting the corresponding coding sequences between the XhoI and EcoRI sites of the vector pMSCV-CITE-eGFP-PGK-Puro (Clontech), which allows for coexpression of the inserted gene, GFP, and a puromycin resistance gene. GFP expression was used to estimate transducing efficiency.
Primary CD4^+ cells were purified from spleen and lymph nodes of Stim1^f1/f1 CD4-Cre^+ mice using Dynal magnetic beads (Invitrogen) following the manufacturer's instructions. Purified T cells were stimulated with anti-CD3 and anti-CD28, transduced with retroviruses obtained from transfected Phoenix packaging cells, and further expanded in IL-2-containing medium as described (Oh-hora, M., et al., Nat Immunol 9, 432-443 (2008); Ansel, K. M., et al., Nat Immunol 5, 1251-1259 (2004)). The transduction efficiency (>80%) was estimated by evaluating GFP expression using flow cytometry.
Retrovirus-transduced CD4^+ cells isolated from Stim1^f1/f1 CD4-Cre^+ mice were incubated overnight in IL-2 free RPMI medium and loaded with 2 μM Fura-2-acetoxylmethyl ester (Invitrogen) for 45 min at ambient temperature in the dark. T cells were further attached to coverslips precoated with 0.01% poly-L-lysine, mounted to a RC-20 closed-bath flow chamber (Warner Instrument), and bathed in Ringer's solution (155 mM NaCl, 4.5 mM KCl, 2 mM CaCl2, 1 mM MgCl2, 10 mM D-glucose and 5 mM HEPES, pH 7.4). For nominally Ca^2+-free Ringer's solution CaCl2 was replaced with MgCl2. After 5 minutes of equilibration in Ringer's solution, [Ca^2+]i measurement commenced with ˜3 min perfusion of T cells with Ca^2+-free Ringer's solution at ambient temperature, followed by perfusion of Ringer's solution containing 2 mM CaCl2. The cycle was repeated once with final addition of Ringer's solution supplemented with 2 μM LaCl3 to block Ca^2+ flux. Images were acquired using a Zeiss Axiovert S200 epifluorescence microscope and OpenLab imaging analysis software (Improvision). The fluorescence data (F340 nm/F380 nm) were collected every 4 s and analyzed as described (Oh-hora, M., et al., (2008), supra; Feske, S., et al., Nature 441, 179-185 (2006)). In each experiment, for each experimental condition, 50-100 GFP-positive CD4+ T cells were analyzed.

| Substance | constitutive Ca^2+ influx | maximum levels of cytoplasmic Ca^2+ (compared with STIM1^CT) | rate of rise of cytoplasmic Ca^2+ (compared with STIM1^CT) | steepest rise of cytoplasmic [Ca^2+] (on changing to medium containing 2 mM Ca^2+) [nM/s] |
| --- | --- | --- | --- | --- |
| STIM1 (233-463): truncated mouse STIM1 cytoplasmic fragment, residues 233-463, His-tagged recombinant protein | smaller but very clear constitutive Ca^2+ influx | – | – | – |
| STIM1 (233-498): truncated mouse STIM1 cytoplasmic fragment, residues 233-498, His-tagged recombinant protein | activated a prominent constitutive Ca^2+ influx | somewhat less than with STIM1^CT | nearly comparable to the rate with STIM 1^CT | – |
| STIM1^CT: cytoplasmic region of STIM1, mouse residues 233-685, His-tagged recombinant protein expressed in E coli | – | – | – | ~15 |

Reference: patent publication US20120264231A1, “ASSAY FOR ORAI CALCIUM CHANNEL REGULATORS” (IMMUNE DISEASE INSTITUTE, INC., priority 2009, published 2012)
